Results from ChEMBL document CHEMBL1126639, “Centrally acting serotonergic and dopaminergic agents. 2. Synthesis and structure-activity relationships of 2,3,3a,4,9,9a-hexahydro-1H-benz[f]indole derivatives” (J Med Chem, 1993).

Tests used:
D(2) dopamine receptor [1] = molecular target: D(2) dopamine receptor (Homo sapiens, UniProt P14416); experiment: Binding affinity against [3H]U-86,170-labeled dopamine receptor D2 in cloned CHO cells; assay type: cell-based
D(2) dopamine receptor [2] = molecular target: T1, D(2) dopamine receptor (Rattus norvegicus, UniProt P61169); experiment: Inhibitory concentration against [3H]raclopride-labeled dopamine receptor D2 in rat striatum; assay type: tissue-based
Mus musculus [3] = experiment: Maximum decrease in temperature when compound is administered subcutaneously; assay type: functional
Mus musculus [4] = experiment: Effective dose on hypothermia in mouse when administered subcutaneously (95% confidence levels); assay type: functional; settings: sc
Mus musculus [5] = experiment: Effective dose on hypothermia in mouse when administered through peroral route; assay type: functional; settings: Mus musculus, po; read-out: ED50
Rattus norvegicus [6] = experiment: Effect on the synthesis rates of serotonin (5-HTP accumulation) in the rat ventral limbic brain region 3.4 umol/kg.; assay type: functional, Limbic system
Felis catus [7] = species: Felis catus; experiment: Percent of arterial blood pressure at sympathetic nerve activity (SND) dose value was determined; assay type: functional
Mus musculus [8] = experiment: Maximum decrease in temperature when compound is administered through peroral route; assay type: functional
Felis catus [9] = experiment: Maximum decrease of arterial blood pressure at sympathetic nerve activity (SND) in anesthetized cat has been observed following 1 mg/kg dose; assay type: functional; design: scale not given: the % may be the effect or the level left
Felis catus [10] = experiment: Maximum decrease of sympathetic nerve activity (SND) in anesthetized cat; assay type: functional; design: scale not given: the % may be the effect or the level left
Rattus norvegicus [11] = experiment: Effect on the synthesis rates of dopamine (DOPA accumulation) in the rat ventral limbic brain region at 3.4 uM/kg.; assay type: functional, Limbic system
Felis catus [12] = experiment: Effective dose at which the sympathetic nerve activity (SND) has been reduced to 50% of the pretreatment value in anesthetized cat; assay type: functional
Mus musculus [13] = experiment: Time of effect in the isolation-induced aggression behavioral assay in the mouse when a dose of 0.0 micro mol/kg is administered intraperitoneally; assay type: functional
Mus musculus [14] = experiment: Ability to stimulate dopaminergic systems by effect on locomotor activity in reserpinized mice when a dose of 3.5 micro mol/kg is administered intraperitoneally (*,p<0.05); assay type: functional
Mus musculus [15] = experiment: Ability to stimulate dopaminergic systems by effect on locomotor activity in reserpinized mice when a dose of 0.4 micro mol/kg is administered intraperitoneally; assay type: functional
Rattus norvegicus [16] = experiment: Inhibition of firing rates of serotonergic neurons in the dorsal raphe nucleus by intravenous injection in rats; assay type: functional; settings: Rattus norvegicus, Dorsal raphe nucleus, iv; read-out: ED50
Mus musculus [17] = experiment: Time of effect in the isolation-induced aggression behavioral assay in the mouse when a dose of 3.5 micro mol/kg is administered intraperitoneally (*,p<0.05); assay type: functional
Rattus norvegicus [18] = experiment: Inhibition of firing rates of dopaminergic neurons in the substantia nigra pars compacta by intravenous injection in rats; assay type: functional
Rattus norvegicus [19] = experiment: Effect on the synthesis rates of dopamine (DOPA accumulation) in the rat ventral limbic brain region at 3.5 umol/kg; assay type: functional, Limbic system
Mus musculus [20] = experiment: Effective dose on hypothermia in mouse when administered subcutaneously; assay type: functional; settings: sc
Mus musculus [21] = experiment: Time of effect in the isolation-induced aggression behavioral assay in the mouse when a dose of 1.1 micro mol/kg is administered intraperitoneally; assay type: functional
D(2) dopamine receptor [22] = molecular target: T1, D(2) dopamine receptor; experiment: Binding affinity for [3H]raclopride-labeled dopamine receptor D2 in rat striatum; assay type: tissue-based
Rattus norvegicus [23] = experiment: Effect on the synthesis rates of serotonin (5-HTP accumulation) in the rat ventral limbic brain region 3.5 umol/kg; assay type: functional, Limbic system
Mus musculus [24] = experiment: Time of effect in the isolation-induced aggression behavioral assay in the mouse when a dose of 36 micro mol/kg is administered intraperitoneally (*,p<0.05); assay type: functional
Mus musculus [25] = experiment: Antagonism of apomorphine in reserpinized mice when a dose of 3.5 micro mol/kg is administered intraperitoneally; assay type: functional
Mus musculus [26] = experiment: Antagonism of apomorphine in reserpinized mice when a dose of 35 micro mol/kg is administered intraperitoneally; assay type: functional
Mus musculus [27] = experiment: Antagonism of apomorphine in reserpinized mice when a dose of 0.4 micro mol/kg is administered intraperitoneally; assay type: functional
Mus musculus [28] = experiment: Time of effect in the isolation-induced aggression behavioral assay in the mouse when a dose of 0.4 micro mol/kg is administered intraperitoneally; assay type: functional
Mus musculus [29] = experiment: Ability to stimulate dopaminergic systems by effect on locomotor activity in reserpinized mice when a dose of 35 micro mol/kg is administered intraperitoneally (*,p<0.05); assay type: functional
Mus musculus [30] = experiment: Time of effect in the isolation-induced aggression behavioral assay in the mouse when a dose of 11 micro mol/kg is administered intraperitoneally (*,p<0.05); assay type: functional
Mus musculus [31] = experiment: Time of effect in the isolation-induced aggression behavioral assay in the mouse when a dose of 9.1 micro mol/kg is administered intraperitoneally; assay type: functional
[32] = molecular target: Sodium-dependent dopamine transporter (Rattus norvegicus) (UniProt P23977); experiment: Inhibition of firing rates of dopaminergic neurons in the substantia nigra pars compacta by intravenous injection in rats.; assay type: functional, tissue-based
Rattus norvegicus [33] = experiment: Effect on the synthesis rates of serotonin in the rat ventral limbic brain region 0.3 micro mol/kg.; assay type: functional, Limbic system
Mus musculus [34] = experiment: Time of effect in the isolation-induced aggression behavioral assay in the mouse when a dose of 0.3 micro mol/kg is administered intraperitoneally; assay type: functional
Rattus norvegicus [35] = experiment: Effect on the synthesis rates of dopamine in the rat ventral limbic brain region at 3.0 micro mol/kg; assay type: functional, Limbic system
[36] = molecular target: Sodium-dependent dopamine transporter (Rattus norvegicus) (UniProt P23977); experiment: Inhibition of firing rates of serotonergic neurons in the dorsal raphe nucleus by intravenous injection in rats.; assay type: functional, tissue-based
Mus musculus [37] = experiment: Time of effect in the face-to-face behavioral assay in the mouse when a dose of 30 micro mol/kg is administered subcutaneously; assay type: functional
Rattus norvegicus [38] = experiment: Effect on the synthesis rates of serotonin in the rat ventral limbic brain region 3.0 micro mol/kg.; assay type: functional, Limbic system
Mus musculus [39] = experiment: Time of effect in the face-to-face behavioral assay in the mouse when a dose of 3.0 micro mol/kg is administered subcutaneously; assay type: functional
Mus musculus [40] = experiment: Time of effect in the isolation-induced aggression behavioral assay in the mouse when a dose of 3.0 micro mol/kg is administered intraperitoneally; assay type: functional
Mus musculus [41] = experiment: Time of effect in the isolation-induced aggression behavioral assay in the mouse when a dose of 0.9 micro mol/kg is administered intraperitoneally; assay type: functional
Felis catus [42] = experiment: Maximum decrease of sympathetic nerve activity (SND) in anesthetized cat has been expressed as percent control; assay type: functional; design: scale not given: the % may be the effect or the level left
Mus musculus [43] = experiment: Time of effect in the isolation-induced aggression behavioral assay in the mouse when a dose of 30 micro mol/kg is administered intraperitoneally; assay type: functional
Rattus norvegicus [44] = experiment: Effect on the synthesis rates of dopamine in the rat ventral limbic brain region at 0.3 micro mol/kg.; assay type: functional, Limbic system
Mus musculus [45] = experiment: Time of effect in the face-to-face behavioral assay in the mouse when a dose of 0.3 micro mol/kg is administered subcutaneously; assay type: functional
Mus musculus [46] = species: Mus musculus; experiment: Time of effect in the face-to-face behavioral assay in the mouse […]; assay type: functional
Mus musculus [47] = experiment: Time of effect in the face-to-face behavioral assay in the mouse when a dose of 8.4 micro mol/kg is administered subcutaneously; assay type: functional
Mus musculus [48] = experiment: Time of effect in the face-to-face behavioral assay in the mouse when a dose of 28 micro mol/kg is administered subcutaneously; assay type: functional
Mus musculus [49] = experiment: Time of effect in the face-to-face behavioral assay in the mouse when a dose of 2.8 micro mol/kg is administered subcutaneously; assay type: functional

Sodium-dependent dopamine transporter (Rattus norvegicus), sequence (P23977 whole entry): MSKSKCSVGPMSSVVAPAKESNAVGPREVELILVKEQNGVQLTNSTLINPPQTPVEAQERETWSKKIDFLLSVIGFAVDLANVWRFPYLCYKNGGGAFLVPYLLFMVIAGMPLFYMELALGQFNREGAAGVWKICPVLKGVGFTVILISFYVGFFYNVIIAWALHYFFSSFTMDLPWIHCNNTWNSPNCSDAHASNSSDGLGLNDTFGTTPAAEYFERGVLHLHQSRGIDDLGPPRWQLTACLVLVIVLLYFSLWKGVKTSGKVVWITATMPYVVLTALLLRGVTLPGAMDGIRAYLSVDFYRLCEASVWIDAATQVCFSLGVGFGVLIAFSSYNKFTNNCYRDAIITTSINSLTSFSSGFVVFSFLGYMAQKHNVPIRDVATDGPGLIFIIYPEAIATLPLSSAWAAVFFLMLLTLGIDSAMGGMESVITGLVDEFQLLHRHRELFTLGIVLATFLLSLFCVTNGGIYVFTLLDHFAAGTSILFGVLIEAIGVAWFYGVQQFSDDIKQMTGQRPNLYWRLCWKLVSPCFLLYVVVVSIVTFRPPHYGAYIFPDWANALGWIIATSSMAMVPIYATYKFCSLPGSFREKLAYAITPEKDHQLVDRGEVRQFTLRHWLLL
D(2) dopamine receptor (Homo sapiens, UniProt P14416), sequence (P14416 whole entry): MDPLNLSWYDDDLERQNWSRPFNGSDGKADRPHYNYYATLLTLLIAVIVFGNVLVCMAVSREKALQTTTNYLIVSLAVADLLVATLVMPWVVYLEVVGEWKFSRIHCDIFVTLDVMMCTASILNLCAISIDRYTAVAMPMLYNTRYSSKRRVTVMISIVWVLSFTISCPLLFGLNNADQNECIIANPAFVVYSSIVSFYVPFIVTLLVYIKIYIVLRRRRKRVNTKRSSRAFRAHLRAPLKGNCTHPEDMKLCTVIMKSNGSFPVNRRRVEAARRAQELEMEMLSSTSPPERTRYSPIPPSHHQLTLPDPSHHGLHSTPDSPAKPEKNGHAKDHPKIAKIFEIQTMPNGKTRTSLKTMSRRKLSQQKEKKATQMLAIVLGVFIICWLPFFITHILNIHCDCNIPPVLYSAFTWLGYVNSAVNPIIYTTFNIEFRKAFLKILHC
T1 sequence (P61169 whole entry): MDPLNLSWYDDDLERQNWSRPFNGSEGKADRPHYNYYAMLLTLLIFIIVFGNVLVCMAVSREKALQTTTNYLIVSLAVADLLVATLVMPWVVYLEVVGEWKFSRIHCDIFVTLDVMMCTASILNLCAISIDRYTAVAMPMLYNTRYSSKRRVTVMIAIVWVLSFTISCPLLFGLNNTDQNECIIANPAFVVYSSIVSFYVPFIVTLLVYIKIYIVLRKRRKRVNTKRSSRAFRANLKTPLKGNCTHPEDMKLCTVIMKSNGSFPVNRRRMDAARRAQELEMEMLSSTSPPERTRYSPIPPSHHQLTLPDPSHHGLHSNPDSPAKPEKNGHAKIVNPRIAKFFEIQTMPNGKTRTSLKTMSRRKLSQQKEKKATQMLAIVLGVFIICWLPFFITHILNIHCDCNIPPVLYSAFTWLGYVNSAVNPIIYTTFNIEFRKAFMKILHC

CCCN1[C@@H](C)C[C@@H]2Cc3cccc(OC)c3C[C@@H]21 (racemic)
Ki (D(2) dopamine receptor [1]): 464 nM
IC50 (D(2) dopamine receptor [2]): > 1000 nM
Max temperature decrease (Mus musculus [3]): 7.8
ED50 (Mus musculus [4]): 4.4 µmol/kg
ED50 (Mus musculus [5]): > 101 µmol/kg
Control (Rattus norvegicus [6]): -44%
BP (Felis catus [7]): 85%
Max temperature decrease (Mus musculus [8]): 3.1
Control (Felis catus [9]): 63%
Control (Felis catus [10]): 25%
Control (Rattus norvegicus [11]): 32%
ED50 (Felis catus [12]): 1.18 µmol/kg

CCCN1CC[C@@H]2Cc3c(cccc3OC)C[C@H]21 (racemic)
Time (Mus musculus [13]): 9 s
Ki (D(2) dopamine receptor [1]): 100 nM
Locomotor activity (Mus musculus [14]): 1168
Locomotor activity (Mus musculus [15]): 251
Max temperature decrease (Mus musculus [3]): 6.7
ED50 (Rattus norvegicus [16]): 0.07 µmol/kg
ED50 (Mus musculus [5]): > 355 µmol/kg
Time (Mus musculus [17]): 384 s
ED50 (Rattus norvegicus [18]): 0.66 µmol/kg
Control (Rattus norvegicus [19]): -39%
ED50 (Mus musculus [20]; Mus musculus, read-out: ED50): 0.4 µmol/kg
Time (Mus musculus [21]): 134 s
Ki (D(2) dopamine receptor [22]): 877 nM
Max temperature decrease (Mus musculus [8]): 1.4
Control (Rattus norvegicus [23]): -29%
Time (Mus musculus [24]): 450 s
Locomotor activity (Mus musculus [25]): 129
Locomotor activity (Mus musculus [26]): 61
Locomotor activity (Mus musculus [27]): 148
Time (Mus musculus [28]): 6 s
Locomotor activity (Mus musculus [29]): 561
Time (Mus musculus [30]): 268 s

CCCN(CCC)C1CCc2cccc(O)c2C1 (stereo unspecified) [8-OH-DPAT]
Time (Mus musculus [31]): 437 s
ED50 [32]: 2.25 µmol/kg
Control (Rattus norvegicus [33]): -37%
Time (Mus musculus [34]): 11 s
Control (Rattus norvegicus [35]): 3%
ED50 [36]: 0.005 µmol/kg
Time (Mus musculus [37]): 4.4 s
Max temperature decrease (Mus musculus [3]): 7.2
Control (Rattus norvegicus [38]): -47%
Time (Mus musculus [39]): 5 s
Time (Mus musculus [40]): 310 s
ED50 (Mus musculus [5]): 9.7 µmol/kg
Time (Mus musculus [41]): 20 s
ED50 (Mus musculus [20]): 1 µmol/kg
Control (Felis catus [42]): 2%
Time (Mus musculus [43]): 351 s
BP (Felis catus [7]): 66%
Max temperature decrease (Mus musculus [8]): 7.5
Control (Felis catus [9]): 57%
Control (Rattus norvegicus [44]): 16%
Time (Mus musculus [45]): 1.6 s
Time (Mus musculus [46]): 1.1 s
ED50 (Felis catus [12]): 0.03 µmol/kg

CN(C)CCCN1c2ccccc2Sc2ccc(Cl)cc21.Cl [CHLORPROMAZINE HYDROCHLORIDE]
Time (Mus musculus [47]): 1.3 s
Time (Mus musculus [48]): 0 s
Time (Mus musculus [49]): 5.8 s
Time (Mus musculus [46]): 3.6 s
